Measurements reported in patent US20230321135A1, “TARGETING OF LACTATE DEHYDROGENASE C, METHODS OF PREPARING SAME, AND METHODS OF USING SAME IN COMBINATION WITH ANTI-CANCER TREATMENTS” (QATAR FOUNDATION FOR EDUCATION, SCIENCE AND COMMUNITY …, priority 2020, published 2023).

Assays:
LDHC = conditions: cited from earlier work
MDA-MB-468 cells [1] = experiment: Phospho-γ-H2AX immunofluorescence after olaparib or cisplatin treatment; format: cell-based; conditions: similar levels in shCTRL and shLDHC treated cells
From the text: (§1) FIG. 6A: Annexin V/PI flow cytometric quantification of apoptosis after 72 hrs of treatment with olaparib or cisplatin. FIG. 6B depicts a western blot of cleaved caspase 3 protein expression with β-actin as loading control. Numbers under each lane represent mean densitometry values (arbitrary units) for cleaved caspase 3 signal (high exposure blot) from three independent experiments normalized to β-actin. FIG. 6C: Representative immunofluorescence microscopy images of phospho-γ-H2AX (red) and DAPI-stained nuclei (100× magnification). Yellow arrows indicate early apoptotic cells and white arrows indicate late apoptotic cells. […] All statistical analysis comparing shCTRL vs shLDHC performed using Student's t-test.
(§2) DNA damage repair inhibitors and DNA damage inducing agents, including the Poly ADP-ribose polymerase (PARP)-inhibitor olaparib and cisplatin, are widely used anti-cancer drugs with particular benefit to patients with defects in DDR pathways such as BRCA1/2-positive or ‘BRCAness’ basal breast cancer patients.

MDA-MB-468 cells [2] = experiment: Western blot of cleaved caspase 3 after olaparib or cisplatin treatment; format: cell-based; conditions: MDA-MB-468, after treatment
From the text: as §1, §2

[3] = system: shLDHC breast cancer cells (MDA-MB-468, BT-549, HCC-1500); experiment: Annexin V/PI apoptosis after 72 hrs of treatment with olaparib or cisplatin; format: cell-based
From the text: as §1
Supplemental FIG. 5A depicts a representative Annexin V/PI flow cytometry plots of MDA-MB-468 cells after 72 hrs of treatment with olaparib or cisplatin. Supplemental FIG. 5B depicts Annexin V/PI flow cytometric quantification of BT-549 cells after 72 hrs of treatment with olaparib or cisplatin. Supplemental FIG. 5C: Annexin V/PI flow cytometric quantification of HCC-1500 cells after 72 hrs of treatment with olaparib or cisplatin. […] Statistical analysis comparing shCTRL vs shLDHC performed using Student's t-test. […]

[4] = system: shLDHC breast cancer cells (MDA-MB-468, BT-549, MDA-MB-231, HCC-1500); experiment: Clonogenic assay at 14 days of culture post-treatment (72 h) with olaparib or cisplatin; format: cell-based; conditions: cell-line dependent
HCC-1500 cells = experiment: Sensitivity to olaparib or cisplatin (72 h treatment; Annexin V/PI, clonogenic assay); format: cell-based; conditions: 14 days of culture post-treatment (72 h)

SMILES	affinity for LDHC (LDHC)	selectivity towards LDHC (LDHC; vs other lactate dehydrogenase enzymes (LDHA, LDHB))	DNA damage after treatment (MDA-MB-468 cells [1])	expression of cleaved caspase 3 in shLDHC cells (MDA-MB-468 cells [2])	apoptosis in giant shLDHC cells compared to shCTRL cells [3]	colony formation ability of shLDHC cells further compromised, compared to shCTRL treated cells [4]	clonogenic ability of shCTRL and shLDHC cells (HCC-1500 cells)
CCNC(=O)C(=O)O [N-Ethyl oxamate]	high affinity	–	–	–	–	–	–
CCCNC(=O)C(=O)O [N-propyl oxamate]	–	high degree of selectivity	–	–	–	–	–
N.N.[Cl][Pt][Cl] [cisplatin]	–	–	significant increase	augmented	further induced	greater than 4 fold	completely abolished
O=C(c1cc(Cc2n[nH]c(=O)c3ccccc23)ccc1F)N1CCN(C(=O)C2CC2)CC1 [olaparib]	–	–	significant increase	augmented	further induced	about 2 fold	–
